Assay results taken from patent US6184374A, “Targeted cytotoxic anthracycline analogs” (priority 1998, dated 2001).
“And” between values parts separate entries of the source, which are not always exact repeats. Identical values can stand only once. Like-named read-outs stand apart in the source and are kept apart here.

Key:
[1] = test system: MCF-7 human mammary carcinoma cell line; type: cell-based
Source text: (§1) MXT estrogen-independen mouse mammary carcinoma cell line was obtained from Dr. Gunter Berndhart, University of Regensburg, Germany. All the other cell lines used in the determination of the antiproliferative activity of the compounds of this invention were obtained from the American Type Culture Collection (ATCC).
(§2) For the evaluation of the activity of the analogs, a colorimetric cytotoxicity assay in microtitration plates was used based on quantification of biomass by staining cells with crystal violet, which correlates very well with determination of cell numbers. (Reile et al.; Anal. Biochem. 187, 262-267, 1990; Bernhardt G. et al, J. Cancer Res. Clin. Oncol. (1992), 118, 35-43; Spruss Th. et al, J. Cancer Res. Clin. Oncol 117, 435-443, 1991; Gillies, R. J., Anal. Biochem. 159, 109-113, 1986; Kueng, W. et al.; Anal. Biochem., 182 16-19, 1989.)
(§3) One to two days after seeding cells in 96-well plates the culture medium is exchanged with fresh medium containing the compounds to be tested and fresh medium only for the control cultures. After varying time of incubation, cells are fixed with glutaric dialdehyde and stored under […] at 4° C. until the end of the experiment. Cells are stained with crystal violet and bound stain is extracted with 70% aqueous EtOH. Optical density is measured with EIA Reader (Bio-Tek Instruments) or Biomek 1000 (Beckman) at 590 nm or 600 nm, respectively. Each data point represents the mean value of eight culture wells. T/C values are calculated as T/C=(T-C0)/(C-C0) where T=optical density of treated cultures, C=optical density of control (untreated) cultures, C0 =optical density of cultures at the start of incubation (t=0).
Cells were incubated in IMEM media containing 5% Hl:DCC-FBS (heat inactivated dextran coated charcoal treated fetal bovine serum) on 96 well plates. Relative cell number in treated and control plates was determined by the crystal violet staining method and was expressed as T/C values where T/C=T-C0 /C-C0×100 [T=absorbance of treated cultures, C= absorbance of control cultures, C0 =absorbance of cultures at the start of incubation (t=0). The measured absorbance is proportionate to the cell number.]

[2] = test system: MXT estrogen independent mouse mammary carcinoma cell line; assay: In vitro cytotoxic activity, crystal violet colorimetric assay on MXT; type: cell-based
Source text: as §1, §2, §3

[3] = test system: estrogen independent MXT mouse mammary cancers; assay: Treatment of estrogen independent MXT mouse mammary cancers (KS-49); type: in vivo
Source text: In order to compare the tumor inhibitory activity of cytotoxic doxorubicin derivative, Q6 and its targeted cytotoxic peptide conjugate, Q6^14 gL as well as the well known antineoplastic agent, DOX and to determine the optimal way of administration and the nontoxic doses, LH-RH receptor positive MXT (3.2) ovex tumor pieces (1 mm^3) were implanted s. c. in female B6 D2 F1 mice. One day after transplantation the mice were randomly divided into groups of five animals and the treatment started. The compounds were dissolved in 0.1% trifluoroacetic acid (pH 2) and given intraperitoneally.

[4] = Table 17-1; 3 × 10^-8 M; incubation 70 hr
[5] = Table 17-1; 3 × 10^-8 M; incubation 120 hr
[6] = Table 17-1; 3 × 10^-9 M; incubation 70 hr
[7] = Table 17-1; 3 × 10^-9 M; incubation 120 hr
[8] = Table 17-1; 10^-8 M; incubation 70 hr
[9] = Table 17-1; 10^-8 M; incubation 120 hr
[10] = Table 17-1; 3 × 10^-10 M; incubation 70 hr
[11] = Table 17-1; 3 × 10^-10 M; incubation 120 hr
[12] = Table 17-1; 10^-9 M; incubation 70 hr
[13] = Table 17-1; 10^-9 M; incubation 120 hr

## COc1cccc2c1C(=O)c1c(O)c3c(c(O)c1C2=O)C[C@@](O)(C(=O)CO)C[C@@H]3O[C@H]1C[C@H](N2CCCCC2)[C@H](O)[C@H](C)O1 [AN-183, Piperidino-DOX]
[1]; [4]
  T/C Value: 4
[1]; [5]
  T/C Value: 0
[1]; [6]
  T/C Value: 114
[1]; [7]
  T/C Value: 109
[1]; [8]
  T/C Value: 70
[1]; [9]
  T/C Value: 67

## COc1cccc2c1C(=O)c1c(O)c3c(c(O)c1C2=O)C[C@@](O)(C(=O)CO)C[C@@H]3O[C@H]1C[C@H](N2Cc3ccccc3C2)[C@H](O)[C@H](C)O1.O=C(O)C(F)(F)F [Compound Q3, 3'-deamino-3'-(isoindoline-2"-yl)doxorubicin]
[1]; Table 17-1, 10^-8 M; incubation 70 hr
  T/C Value: -11
[1]; Table 17-1, 10^-8 M; incubation 120 hr
  T/C Value: -29
[1]; [4]
  T/C Value: 86
[1]; [5]
  T/C Value: 77
[1]; [8]
  T/C Value: 118
[1]; [9]
  T/C Value: 108

## COc1cccc2c1C(=O)c1c(O)c3c(c(O)c1C2=O)C[C@@](O)(C(=O)CO)C[C@@H]3O[C@H]1C[C@H](N2CC=CC2)[C@H](O)[C@H](C)O1.O=C(O)C(F)(F)F [Compound Q4, 3'-deamino-3'-(3"-pyrroline-1"-yl)doxorubicin]
[1]; [5]
  T/C Value: -5
[1]; [6]
  T/C Value: 106
[1]; [7]
  T/C Value: 97
[1]; [8]
  T/C Value: 72
[1]; [9]
  T/C Value: 65

## COc1cccc2c1C(=O)c1c(O)c3c(c(O)c1C2=O)C[C@@](O)(C(=O)CO)C[C@@H]3O[C@H]1C[C@H](N2CCC(=O)C2)[C@H](O)[C@H](C)O1.O=C(O)C(F)(F)F [Compound Q5, 3'-deamino-3'-(3"-pyrrolidone-1"-yl) doxorubicin]
[1]; [4]
  T/C Value: -28
[1]; [5]
  T/C Value: -10
[1]; [6]
  T/C Value: 87
[1]; [7]
  T/C Value: 67
[1]; [8]
  T/C Value: 30
[1]; [9]
  T/C Value: 25

## COc1cccc2c1C(=O)c1c(O)c3c(c(O)c1C2=O)C[C@@](O)(C(=O)CO)C[C@@H]3OC1CC(N2C=CCC2)C(O)C(C)O1 (some centres unmarked) [Compound Q6, 3'-deamino-3'-(2"-pyrroline-1"-yl)doxorubicin]
[2]; 3 × 1^-11 M (so in the source), 28 hr
  T/C value on MXT cell line: 90
[2]; 3 × 1^-11 M (so in the source), 69 hr
  T/C value on MXT cell line: 52
[2]; 3 × 10^-10 M, 28 hr
  T/C value on MXT cell line: 56
[2]; 3 × 10^-10 M, 69 hr
  T/C value on MXT cell line: -13
[2]; 10^-10 M, 28 hr
  T/C value on MXT cell line: 78
[2]; 10^-10 M, 69 hr
  T/C value on MXT cell line: 6
[3]; 0.2 nmol/inj. i.p., total 21 nmol (Groups 5 and 9)
  Average survival: 13.0 days
[3]; 0.5 nmol/inj. i.p., 5 inj./week, total 7.5 nmol (Groups 3 and 7)
  Average survival: 19.6 days
[3]; 1.25 nmol on day 1, 2, 7 and 8
  Toxicity: strong toxicity
[3]; 1.25 nmol/inj. i.p., 2 inj./week, day 1, 2, 7 and 8 (Groups 2 and 6)
  Average survival: 17.4 days and 17.5 days
[3]; 0.25 * nmol/inj. i.p. (dose raised day 9 to 12), total 9.5 nmol (Groups 4 and 8)
  Average survival: 14.6 days
[3]; Group 2, 1.25 nmol on day 1, 2, 7 and 8, at day 16
  Average final tumor volume: 1065 mm^3
[1]; [6]
  T/C Value: -18
[1]; [7]
  T/C Value: -9
[1]; [10]
  T/C Value: 50
[1]; [11]
  T/C Value: 26
[1]; [12]
  T/C Value: -3
[1]; [13]
  T/C Value: 2
[1]; Table 18-1; 3 × 10^-9 M; 70 hr
  T/C Value on MCF-7 Cell Line: -18
[1]; Table 18-1; 3 × 10^-9 M; 120 hr
  T/C Value on MCF-7 Cell Line: -9
[1]; Table 18-1; 10^-9 M; 70 hr
  T/C Value on MCF-7 Cell Line: -3
[1]; Table 18-1; 10^-9 M; 120 hr
  T/C Value on MCF-7 Cell Line: 2
[1]; Table 18-1; 10^-10 M (by column position); 70 hr
  T/C Value on MCF-7 Cell Line: 50
[1]; Table 18-1; 10^-10 M (by column position); 120 hr
  T/C Value on MCF-7 Cell Line: 26

## COc1cccc2c1C(=O)c1c(O)c3c(c(O)c1C2=O)C[C@@](O)(C(=O)CO)C[C@@H]3O[C@H]1C[C@H](N2CCCC(=O)C2)[C@H](O)[C@H](C)O1.O=C(O)C(F)(F)F [Compound Q7, 3'-deamino-3'-(3"-piperidone-1"-yl) doxorubicin]
[1]; [4]
  T/C Value: 59
[1]; [5]
  T/C Value: 43
[1]; [6]
  T/C Value: 96
[1]; [7]
  T/C Value: 97
[1]; [8]
  T/C Value: 80
[1]; [9]
  T/C Value: 70

## COc1cccc2c1C(=O)c1c(O)c3c(c(O)c1C2=O)C[C@@](O)(C(=O)CO)C[C@@H]3O[C@H]1C[C@H](N2C=CCCC2)[C@H](O)[C@H](C)O1.O=C(O)C(F)(F)F [Compound Q8, 3'-deamino-3'-(1",3"-tetrahydropyridine-1"-yl)doxorubicin]
[1]; [6]
  T/C Value: 69
[1]; [7]
  T/C Value: 62
[1]; [10]
  T/C Value: 96
[1]; [11]
  T/C Value: 99
[1]; [12]
  T/C Value: 88
[1]; [13]
  T/C Value: 93
